According to US6610270B1, “In vivo determination of metabolic function for use in therapy management” (Xanthus Life Sciences, Inc., priority 1998, dated 2003):

Legend:
[1] = target: T1, cystathionine synthase (CS) (Oryctolagus cuniculus, UniProt Q9N0V7); assay: CS gateway enzyme breath test with homocysteine metaprobe, basal and after methionine load; conditions: n = 4
T1 sequence (Q9N0V7 1-551): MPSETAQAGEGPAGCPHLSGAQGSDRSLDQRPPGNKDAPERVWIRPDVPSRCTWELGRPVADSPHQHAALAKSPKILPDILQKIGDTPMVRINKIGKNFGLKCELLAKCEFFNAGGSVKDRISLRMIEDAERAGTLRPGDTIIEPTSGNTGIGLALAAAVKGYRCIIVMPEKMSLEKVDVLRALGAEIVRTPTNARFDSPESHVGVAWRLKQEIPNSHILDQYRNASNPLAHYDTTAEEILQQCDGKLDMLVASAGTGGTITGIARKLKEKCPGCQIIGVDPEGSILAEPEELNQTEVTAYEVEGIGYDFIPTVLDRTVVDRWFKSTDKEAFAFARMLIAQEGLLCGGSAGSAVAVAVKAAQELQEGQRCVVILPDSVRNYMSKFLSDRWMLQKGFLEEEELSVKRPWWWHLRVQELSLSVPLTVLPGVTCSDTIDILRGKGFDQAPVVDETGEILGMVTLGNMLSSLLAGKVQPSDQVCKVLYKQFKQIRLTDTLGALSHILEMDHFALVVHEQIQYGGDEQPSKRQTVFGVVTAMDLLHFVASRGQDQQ

[2] = target: T1, cystathionine synthase (CS); conditions: male, New Zealand, rabbit, in vivo, iv, 2 mg/kg
oxoprolinase [3] = target: T2, oxoprolinase (Homo sapiens, UniProt O14841); assay: 13C-OTC breath test, metabolic rate index with and without acetaminophen; format: in vivo; conditions: for Metabolic Rate Index, ACE+: 2 gm acetaminophen one hour prior to OTC; for Metabolic Rate Index, BASAL: oral 13C-OTC 1.5 mg/kg alone
T2 construct: Seven healthy volunteers (ages 22-39) each participated in two studies; from tissue; host or cells: whole body of human volunteers (oral dose, breath test)
T2 sequence (O14841 1-1288): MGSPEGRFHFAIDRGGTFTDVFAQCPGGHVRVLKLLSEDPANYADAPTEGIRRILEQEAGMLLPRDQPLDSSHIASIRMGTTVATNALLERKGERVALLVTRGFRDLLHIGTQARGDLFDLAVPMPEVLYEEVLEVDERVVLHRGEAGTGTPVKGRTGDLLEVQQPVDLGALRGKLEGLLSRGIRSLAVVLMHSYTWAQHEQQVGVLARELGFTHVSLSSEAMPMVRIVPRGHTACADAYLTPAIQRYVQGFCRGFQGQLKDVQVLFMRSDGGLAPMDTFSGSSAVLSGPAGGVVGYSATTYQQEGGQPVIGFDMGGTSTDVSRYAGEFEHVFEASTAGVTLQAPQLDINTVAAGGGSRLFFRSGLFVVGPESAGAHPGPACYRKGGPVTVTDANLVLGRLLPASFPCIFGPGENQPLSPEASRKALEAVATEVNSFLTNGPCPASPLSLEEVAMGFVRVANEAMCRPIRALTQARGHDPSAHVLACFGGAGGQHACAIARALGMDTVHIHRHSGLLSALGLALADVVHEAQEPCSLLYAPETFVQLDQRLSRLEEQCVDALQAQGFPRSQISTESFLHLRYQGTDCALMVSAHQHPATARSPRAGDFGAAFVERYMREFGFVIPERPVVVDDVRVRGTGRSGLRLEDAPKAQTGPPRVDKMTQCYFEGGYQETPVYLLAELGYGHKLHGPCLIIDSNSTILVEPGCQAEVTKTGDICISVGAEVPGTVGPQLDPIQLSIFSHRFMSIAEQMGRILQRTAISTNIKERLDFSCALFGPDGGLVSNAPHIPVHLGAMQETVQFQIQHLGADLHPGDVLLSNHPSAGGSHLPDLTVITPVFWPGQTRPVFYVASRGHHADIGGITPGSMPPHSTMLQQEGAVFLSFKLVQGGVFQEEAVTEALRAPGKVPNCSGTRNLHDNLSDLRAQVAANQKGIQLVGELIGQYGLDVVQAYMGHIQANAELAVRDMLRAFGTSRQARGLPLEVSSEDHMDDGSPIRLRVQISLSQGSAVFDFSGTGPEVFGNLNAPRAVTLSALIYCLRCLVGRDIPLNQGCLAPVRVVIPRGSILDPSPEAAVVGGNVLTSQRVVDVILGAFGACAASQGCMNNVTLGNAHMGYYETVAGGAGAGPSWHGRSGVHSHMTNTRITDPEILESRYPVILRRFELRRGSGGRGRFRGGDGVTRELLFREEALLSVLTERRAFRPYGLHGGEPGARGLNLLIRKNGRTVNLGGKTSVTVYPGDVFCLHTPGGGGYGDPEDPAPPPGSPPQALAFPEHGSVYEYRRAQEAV
Method: Seven healthy volunteers (ages 22-39) each participated in two studies. After three days on a weight maintaining diet, each participant was given a drink containing ^13C-labelled OTC (1.5 mg/kg), following which blood and expired breath were sampled frequently. In the first test, each participant received the OTC alone. In the second study at least one week later, each participant ingested 2 gm acetaminophen one hour prior to the OTC drink. Expired breath samples were analyzed for the ^13C enrichment (APE) of CO2, and expressed as isotopic enrichment in atom per cent excess (APE×1000) versus time, in the usual manner and in accordance with the general protocol described in Example I. A second panel of probands (ages 53-73) were tested in a similar manner.
From the pattern of label enrichment, at least two types of kinetic processes are apparent, one is absorption, since the metaprobe was dispensed orally, and the other disposition.
Deconvolution of this model by equation transformation and coefficient matching (Wagner, 1993) afforded separate kinetic measurements for the post absorptive metabolism of OTC in the metabolic compartment, and this was expressed as a fractional catabolic rate (Lassen and Perl, 1979). Lastly, the per cent of metaprobe dose recovered in breath was computed from the cumulative integral of the ^13CO2 enrichment versus time plot multiplied by the CO2 production rate for each proband, which in these experiments were measured by indirect calorimetry (but can also be estimated from formulas that have been proven to correlate an individual's height, weight, age and gender with CO2 production). The metabolic index for OTC utilization by oxoprolinase was then computed by the simple expedient of multiplying the dose of metaprobe by the per cent recovery and then by the fractional catabolic rate.
The data from the validating trial in this Example III all corroborate the biochemical hypothesis concerning the OTC metaprobe's mode of action as an indicator of oxoprolinase activity and, therefore, its utility as a surrogate indicator for glutathione production capacity. The results, which are expressed in terms of nanomoles of OTC metabolized per kilogram body weight per minute for the basal condition (BASAL), post acetaminophen (ACE+), and the stimulatory difference between ACE+ and BASAL (STIM) are shown in Table 5.

oxoprolinase [4] = target: T3, oxoprolinase (Rattus norvegicus, UniProt P97608); conditions: enzymatic assay; cited from earlier work
T3 sequence (P97608 1-1288): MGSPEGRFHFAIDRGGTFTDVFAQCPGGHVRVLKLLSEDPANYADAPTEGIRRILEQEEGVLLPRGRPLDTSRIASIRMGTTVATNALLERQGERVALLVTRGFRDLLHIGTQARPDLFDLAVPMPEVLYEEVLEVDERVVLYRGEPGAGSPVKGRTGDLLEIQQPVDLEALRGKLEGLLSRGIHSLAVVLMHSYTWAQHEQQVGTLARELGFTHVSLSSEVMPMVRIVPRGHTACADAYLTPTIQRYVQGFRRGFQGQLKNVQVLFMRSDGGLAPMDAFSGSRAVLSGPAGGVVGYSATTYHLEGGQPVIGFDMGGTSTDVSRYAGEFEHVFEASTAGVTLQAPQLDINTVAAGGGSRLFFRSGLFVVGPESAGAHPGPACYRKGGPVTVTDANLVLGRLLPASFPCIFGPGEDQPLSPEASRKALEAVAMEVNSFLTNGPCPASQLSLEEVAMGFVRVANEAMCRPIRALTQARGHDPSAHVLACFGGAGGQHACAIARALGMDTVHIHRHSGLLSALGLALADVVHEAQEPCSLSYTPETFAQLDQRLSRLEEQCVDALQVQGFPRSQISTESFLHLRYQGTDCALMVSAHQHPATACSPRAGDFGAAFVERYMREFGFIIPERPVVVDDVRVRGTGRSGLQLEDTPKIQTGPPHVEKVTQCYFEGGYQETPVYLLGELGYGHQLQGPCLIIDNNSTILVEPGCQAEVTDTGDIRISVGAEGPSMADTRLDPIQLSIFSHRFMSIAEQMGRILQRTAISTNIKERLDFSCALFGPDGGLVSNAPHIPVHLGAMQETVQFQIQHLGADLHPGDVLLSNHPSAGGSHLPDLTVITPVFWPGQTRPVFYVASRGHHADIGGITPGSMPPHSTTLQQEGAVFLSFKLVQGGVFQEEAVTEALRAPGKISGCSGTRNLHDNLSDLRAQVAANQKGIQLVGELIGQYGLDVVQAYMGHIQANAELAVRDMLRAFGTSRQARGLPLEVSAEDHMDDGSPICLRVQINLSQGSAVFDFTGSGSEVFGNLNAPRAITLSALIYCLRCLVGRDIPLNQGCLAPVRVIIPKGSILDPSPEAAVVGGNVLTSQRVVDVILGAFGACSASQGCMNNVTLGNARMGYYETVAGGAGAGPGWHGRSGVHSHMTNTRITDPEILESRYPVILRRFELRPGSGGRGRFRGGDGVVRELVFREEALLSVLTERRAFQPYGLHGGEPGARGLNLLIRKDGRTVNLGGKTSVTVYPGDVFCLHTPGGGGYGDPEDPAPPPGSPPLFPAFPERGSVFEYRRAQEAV

SMILES	LI, load tolerance index (BASAL minus MET+) [1]	Metabolic Response Index (MRI), BASAL [2]	Metabolic Rate Index, ACE+ (oxoprolinase [3]; ALL (22-73 yrs., n = 12))	Metabolic Rate Index, ACE+ (oxoprolinase [3]; OLD (53-73 yrs., n = 5))	Metabolic Rate Index, ACE+ (oxoprolinase [3]; YOUNG (22-39 yrs., n = 7))	Metabolic Rate Index, STIM (difference between ACE+ and BASAL) (oxoprolinase [3]; ALL (22-73 yrs., n = 12))	Metabolic Rate Index, STIM (difference between ACE+ and BASAL) (oxoprolinase [3]; OLD (53-73 yrs., n = 5))	Metabolic Rate Index, STIM (difference between ACE+ and BASAL) (oxoprolinase [3]; YOUNG (22-39 yrs., n = 7))	Metabolic Rate Index, BASAL (oxoprolinase [3]; ALL (22-73 yrs., n = 12))	Metabolic Rate Index, BASAL (oxoprolinase [3]; OLD (53-73 yrs., n = 5))	Metabolic Rate Index, BASAL (oxoprolinase [3]; YOUNG (22-39 yrs., n = 7))	action on oxoproline hydrolysis by oxoprolinase (oxoprolinase [4])
CCOC(=O)[C@@H]1CCSC(=O)N1 [Homocysteine Metaprobe, L-2-oxo-tetrahydro-1,3-thiazine-4-carboxylic acid ethyl ester]	57 +/− 24 (n = 4) MicroMol/kg/hr.	85 +/− 14 (n = 4) MicroMol/kg/hr.	–	–	–	–	–	–	–	–	–	–
O=C(O)[C@@H]1CS[13C](=O)N1 [OTC, L-2-oxo[^13C]thiazolidine-4-carboxylic acid]	–	–	515 ± 227 nmol/kg/min	452 ± 161 nmol/kg/min	547 ± 269 nmol/kg/min	208 ± 82 nmol/kg/min	117 ± 40 nmol/kg/min	261 ± 115 nmol/kg/min	307 ± 108 nmol/kg/min	335 ± 110 nmol/kg/min	286 ± 111 nmol/kg/min	competitive inhibitor of oxoproline hydrolysis
